According to patent publication US9200253B1, “Method of producing erythrocytes” (Anthrogenesis Corporation, priority 2007, dated 2015):

How the values were obtained:
[1] = tested on: human UCB derived CD34+ cells; experiment: Ex-vivo expansion of CD34+ cells in short-term serum-free, cytokine supplemented culture; format: cell-based; conditions: for CD34+ phenotype in the expanded population: control 10-30%; for total nucleated cell expansion: not impacted vs control
Method: The ability of pomalidomide to enhance the expansion of human UCB derived CD34^+ cells in a short-term serum-free, cytokine supplemented culture system was evaluated. CD34^+ progenitor cells were enriched from cryopreserved UCB units to >90% purity and seeded (10^4 CD34^+ cells) in 1 mL of growth medium, which consists of IMDM plus serum substitute BIT (BSA, recombinant human insulin and transferrin, 20%), in the presence of SCF (50 ng/mL), Flt-3 ligand (50 ng/mL), and IL-3 (10 ng/mL). Pomalidomide, dissolved in DMSO, was supplemented at 2.7 μg/mL. The culture was incubated at 37° C., 5% CO2 for 12 days, with fresh medium added at day 7. Pomalidomide-free cultures with or without DMSO (0.05% v/v) were used as controls.

CD34+ cells = experiment: Scaled-up CD34+ expansion in gas-permeable fluorocarbon culture bag; format: cell-based, human
Method: CD34^+ cells were seeded in 10^4/mL pomalidomide-supplemented medium in a flexible, gas-permeable fluorocarbon culture bag (American Fluoroseal). After 7 days of incubation, the culture was centrifuged and exchanged with fresh pomalidomide-supplemented medium at three times the initial volume. By day 12, TNC and CD34^+ expansion were 350 (range: 250-700) and 200 (range: 100-450) fold, respectively (FIG. 3). Viability was 86% (range: 80-90%) by trypan blue. A total of 20 million CD34^+ cells were harvested.

[2] = tested on: Pomalidomide-expanded CD34+ cells; experiment: Cumulative colony forming units of expanded CD34+ cells; format: cell-based, human
[3] = first experiment, 2.7 μg/mL, 12 days
[4] = day 12, seeded 10^4/mL, medium exchanged day 7 (FIG. 3)

## Nc1cccc2c1C(=O)N(C1CCC(=O)NC1=O)C2=O (centres unmarked) [pomalidomide, 4-(Amino)-2-(2,6-dioxo(3-piperidyl))-isoindoline-1,3-dione]
[1]; [3]
  CD38 expression on cultured cells: appeared to down-regulate CD38 expression
  CD38 negative fraction of expanded CD34+ cells: 95%
  CD34+ phenotype in the expanded population: 40-60%
[1]; first experiment, 2.7 μg/mL, 12 days, control 40%
  CD133 level on expanded CD34+ cells: 15%
[1]; first experiment, pomalidomide 2.7 μg/mL, 12 days
  total nucleated cell expansion: 200-350 fold
[1]; second, similar experiment
  CD38 expression on cultured cells: appeared to down-regulate CD38 expression
  CD38 negative fraction of expanded CD34+ cells: 97%
[1]; second, similar experiment (FIG. 2)
  CD34+ phenotype in the expanded population: 40-60%
[1]; second, similar experiment, 2.7 μg/mL, 12 days
  total nucleated cell expansion: 200-350 fold
[1]; second, similar experiment, control 32.3%
  CD133 level on expanded CD34+ cells: 11.5%
CD34+ cells; day 12
  Viability by trypan blue: 86%
  total CD34+ cells harvested: 20 million
CD34+ cells; [4]
  CD34+ expansion: 200 (range: 100-450) fold
  TNC expansion: 350 (range: 250-700) fold
CD34+ cells; overall conclusion
  ex-vivo expansion of placental derived CD34+ progenitors: significantly enhanced
[2]; first experiment
  cumulative colony forming units relative to expanded controls: substantial improvement
[2]; second, similar experiment
  cumulative colony forming units relative to expanded controls: substantial improvement
